# Measurements reported in PubChem BioAssay (NCI).
#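 Following 48 hours of exposure in 96-well plates, responses at five concentrations were used to interpolate endpoints linearly. TGI is the concentration that stops growth completely.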
# Columns and labels:
# Assay in all cases: DTP human tumour cell line panel, 48 h
# HOP-62 NSCLC = tested on: HOP-62 NSCLC
# SW-620 colon = tested on: SW-620 colon
# TK-10 renal = tested on: TK-10 renal
# CAKI-1 renal = tested on: CAKI-1 renal
# SNB-19 CNS = tested on: SNB-19 CNS
# UACC-257 melanoma = tested on: UACC-257 melanoma
# EKVX NSCLC = tested on: EKVX NSCLC
# SF-539 CNS = tested on: SF-539 CNS
# MDA-MB-231 breast = tested on: MDA-MB-231 breast
# HS 578T breast = tested on: HS 578T breast
# OVCAR-3 ovarian = tested on: OVCAR-3 ovarian
# M14 melanoma = tested on: M14 melanoma
# ACHN renal = tested on: ACHN renal
# MALME-3M melanoma = tested on: MALME-3M melanoma
# UO-31 renal = tested on: UO-31 renal
# OVCAR-8 ovarian = tested on: OVCAR-8 ovarian
# SK-OV-3 ovarian = tested on: SK-OV-3 ovarian
SMILES,TGI (HOP-62 NSCLC),TGI (SW-620 colon),TGI (TK-10 renal),TGI (CAKI-1 renal),TGI (SNB-19 CNS),TGI (UACC-257 melanoma),TGI (EKVX NSCLC),TGI (SF-539 CNS),TGI (MDA-MB-231 breast),TGI (HS 578T breast),TGI (OVCAR-3 ovarian),TGI (M14 melanoma),TGI (ACHN renal),TGI (MALME-3M melanoma),TGI (UO-31 renal),TGI (OVCAR-8 ovarian),TGI (SK-OV-3 ovarian)
CCc1cc2c(c3c1CCCC3=O)CC1(C2)Cc2cc(CC)c3c(c2C1)C(=O)CCC3,> 100 µM,> 100 µM,> 100 µM,> 100 µM,> 100 µM,> 100 µM,> 100 µM,> 100 µM,> 100 µM,> 100 µM,> 100 µM,> 100 µM,> 100 µM,> 100 µM,> 100 µM,> 100 µM,> 100 µM
CC(=O)C(C(C)=O)[C@H]1OC(C)(C)O[C@H]1[C@H]1COC(C)(C)O1,> 100 µM,> 100 µM,> 100 µM,> 100 µM,> 100 µM,> 100 µM,> 100 µM,41.5 µM,89 µM,> 100 µM,> 100 µM,> 100 µM,> 100 µM,> 100 µM,> 100 µM,> 100 µM,> 100 µM
Cc1cc(C)nc(NS(=O)(=O)c2ccc(Nc3c4ccccc4nc4ccc(C(=O)Nc5ccc(S(=O)(=O)N=C(N)N)cc5)cc34)cc2)n1,> 100 µM,> 100 µM,> 100 µM,> 100 µM,> 100 µM,> 100 µM,> 100 µM,> 100 µM,> 100 µM,> 100 µM,> 100 µM,> 100 µM,> 100 µM,> 100 µM,> 100 µM,> 100 µM,> 100 µM
O=C(O)CCC1NC(/C(=C/c2ccccc2O)NC(=O)c2ccccc2)OC1=O (configuration not stated),62.4 µM,> 100 µM,> 100 µM,> 100 µM,> 100 µM,> 100 µM,> 100 µM,> 100 µM,> 100 µM,> 100 µM,> 100 µM,> 100 µM,> 100 µM,> 100 µM,45.8 µM,> 100 µM,> 100 µM
O=C1c2ccccc2C(=O)c2sc(Nc3cc(Cl)ccc3Cl)nc21,28.9 µM,> 22.2 µM,29.4 µM,11.7 µM,37.9 µM,7.76 µM,26.7 µM,13.4 µM,5.56 µM,> 72.3 µM,4.07 µM,> 42.6 µM,19 µM,3.33 µM,19.4 µM,14.2 µM,30.3 µM
COc1cc2c(cc1OC)C(=O)/C(=C/c1ccc(N(C)C)cc1)CC2,> 10 µM,> 10 µM,> 10 µM,> 10 µM,> 10 µM,> 10 µM,> 10 µM,> 10 µM,> 10 µM,> 10 µM,> 10 µM,> 10 µM,> 10 µM,> 10 µM,> 10 µM,> 10 µM,> 10 µM
Cc1ccc2nc(C(=O)O)c(=O)[nH]c2c1,> 100 µM,> 100 µM,> 100 µM,> 100 µM,> 100 µM,> 100 µM,> 100 µM,> 100 µM,> 100 µM,> 100 µM,> 100 µM,> 100 µM,> 100 µM,> 100 µM,> 100 µM,> 100 µM,> 100 µM
O=C1C2CC[C@@H]3C(=O)C(Cl)(Cl)[C@@H]3CCC2C1(Cl)Cl (some centres not stated),> 29.7 µM,> 100 µM,> 100 µM,> 100 µM,> 100 µM,> 100 µM,> 100 µM,> 90.5 µM,> 100 µM,> 100 µM,> 100 µM,> 100 µM,> 100 µM,> 100 µM,> 100 µM,> 100 µM,> 100 µM
CC(=O)O[C@H]1C(=O)[C@@]2(C)[C@H]([C@H](OC(=O)c3ccco3)[C@]3(O)C[C@H](OC(=O)[C@H](O)[C@@H](NC(=O)c4ccccc4)c4ccccc4)C(C)=C1C3(C)C)[C@]1(OC(C)=O)CO[C@@H]1C[C@@H]2O,> 25 µM,> 25 µM,> 25 µM,> 25 µM,> 25 µM,> 25 µM,> 25 µM,0.371 µM,> 25 µM,> 8.33 µM,0.225 µM,> 25 µM,> 25 µM,> 25 µM,> 25 µM,> 17.2 µM,10 µM
Cc1cc2c(cc1Cl)Sc1n[nH]c(=O)n1S2(=O)=O,> 100 µM,> 100 µM,> 100 µM,> 100 µM,> 100 µM,> 100 µM,> 100 µM,> 100 µM,> 100 µM,> 100 µM,> 100 µM,> 100 µM,> 100 µM,> 100 µM,> 100 µM,> 100 µM,> 100 µM
CCC1CN2CCc3c([nH]c4ccccc34)[C@@](C(=O)OC)(c3cc4c(cc3OC)N(C)C3C(O)(C(=O)OC)C(C(=O)OC)C5(CC)C=CCN6CCC43C65)C[C@@H](C2)[C@@H]1C(C)(C)C (some centres not stated),1.25 µM,> 10 µM,> 10 µM,> 10 µM,> 2.53 µM,> 7.97 µM,> 10 µM,2.31 µM,3.42 µM,> 6.86 µM,> 2.85 µM,8.22 µM,> 10 µM,2.95 µM,> 6.12 µM,> 3.79 µM,> 10 µM
